Data as given in patent US11739100B2, “2,3-dihydro-1h-imidazo{1,2-a}pyrimidin-5-one and this 1,2,3,4-tetrahydropyrimido{1,2-a}pyrimidin-6-one derivatives comprising a substituted morpholine, preparation thereof and pharmaceutical use thereof” (SANOFI, priority 2012, dated 2023).

Target: T1, recombinant Vps34 (Homo sapiens, UniProt Q8NEB9)
T1 construct: purchased Invitrogen PV5126
Test: Phosphorylation of phosphatidylinositol (PI) by Vps34 in vitro, ADP detected by TR-FRET (HTRF Transcreener ADP)
Format: biochemical
Conditions: 10 μM ATP, 55 μg/ml PI, approximately 3 nM Vps34, 1 hour at ambient temperature; absolute IC50, mean of two independent experiments; read-out: IC50 activity range

T1 sequence (Q8NEB9 whole entry): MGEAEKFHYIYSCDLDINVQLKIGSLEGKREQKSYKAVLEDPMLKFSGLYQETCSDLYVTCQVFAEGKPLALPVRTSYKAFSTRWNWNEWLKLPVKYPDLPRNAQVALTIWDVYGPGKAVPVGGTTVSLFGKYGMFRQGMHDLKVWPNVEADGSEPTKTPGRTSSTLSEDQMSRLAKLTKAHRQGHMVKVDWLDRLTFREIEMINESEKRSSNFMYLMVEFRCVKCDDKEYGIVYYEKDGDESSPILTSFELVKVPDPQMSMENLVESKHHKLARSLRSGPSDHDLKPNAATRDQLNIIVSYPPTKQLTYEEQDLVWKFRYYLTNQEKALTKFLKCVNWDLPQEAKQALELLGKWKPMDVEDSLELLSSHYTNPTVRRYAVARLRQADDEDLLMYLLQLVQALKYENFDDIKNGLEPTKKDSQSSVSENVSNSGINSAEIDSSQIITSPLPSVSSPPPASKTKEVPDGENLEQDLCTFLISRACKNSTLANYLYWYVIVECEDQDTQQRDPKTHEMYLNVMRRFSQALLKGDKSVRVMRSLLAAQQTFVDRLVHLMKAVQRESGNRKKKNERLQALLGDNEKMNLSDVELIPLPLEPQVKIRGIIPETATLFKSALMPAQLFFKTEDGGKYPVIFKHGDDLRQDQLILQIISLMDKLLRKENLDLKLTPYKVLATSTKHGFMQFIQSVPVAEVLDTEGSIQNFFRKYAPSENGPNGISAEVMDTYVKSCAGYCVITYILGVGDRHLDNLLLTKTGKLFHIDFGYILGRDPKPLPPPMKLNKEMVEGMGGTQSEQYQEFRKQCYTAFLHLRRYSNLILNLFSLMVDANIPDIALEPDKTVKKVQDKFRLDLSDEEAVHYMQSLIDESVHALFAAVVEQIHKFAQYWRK

SMILES | IC50 [nM]
C[C@@H]1COCCN1c1nc2n(c(=O)c1F)CC[C@@H](C(F)(F)F)N2CC(F)C1CC1 (single isomer, unassigned) [Example 331] | < 10
C[C@@H]1COCCN1c1nc2n(c(=O)c1F)CC[C@@H](C(F)(F)F)N2Cc1cscn1 [Example 69, (S)-3-Fluoro-2-((R)-3-methylmorpholin-4-yl)-9-thiazol-4-ylmethyl-8-trifluoromethyl-6,7,8,9-tetrahydro-pyrimido[1,2-a]-pyrimidin-4-one] | < 10
C[C@@H]1COCCN1c1nc2n(c(=O)c1F)[C@@H](C(F)(F)F)CCN2Cc1ncco1 [Example 129, (R)-3-Fluoro-2-((R)-3-methylmorpholin-4-yl)-9-oxazol-2-ylmethyl-6-trifluoromethyl-6,7,8,9-tetrahydro-pyrimido[1,2-a]-pyrimidin-4-one] | < 10
C[C@@H]1COCCN1c1cc(=O)n2c(n1)N(c1ccnc(C3CC3)c1)[C@H](C(F)(F)F)CC2 [Example 89, (S)-9-(2-Cyclopropyl-pyridin-4-yl)-2-((R)-3-methylmorpholin-4-yl)-8-trifluoromethyl-6,7,8,9-tetrahydro-pyrimido[1,2-a]-pyrimidin-4-one] | < 10
C[C@@H]1COCCN1c1cc(=O)n2c(n1)N(Cc1cn3ccccc3n1)[C@H](C(F)(F)F)CC2 [Example 64, (S)-9-Imidazo[1,2-a]-pyridin-2-ylmethyl-2-((R)-3-methyl-morpholin-4-yl)-8-trifluoromethyl-6,7,8,9-tetrahydro-pyrimido[1,2-a]-pyrimidin-4-one] | > 100
C[C@@H]1COCCN1c1nc2n(c(=O)c1F)C[C@@](C)(C(F)(F)F)N2Cc1ccnc(Cl)c1 [Example 184, (S)-1-(2-Chloro-pyridin-4-ylmethyl)-6-fluoro-2-methyl-7-((R)-3-methylmorpholin-4-yl)-2-trifluoromethyl-2,3-dihydro-1H-imidazo[1,2-a]-pyrimidin-5-one] | < 10
C[C@@H]1COCCN1c1nc2n(c(=O)c1F)CC[C@@H](C(F)(F)F)N2CC(=O)C1CC1 [Example 6, (S)-9-(2-Cyclopropyl-2-oxoethyl)-3-fluoro-2-((R)-3-methyl-morpholin-4-yl)-8-trifluoromethyl-6,7,8,9-tetrahydro-pyrimido[1,2-a]-pyrimidin-4-one] | < 10
C[C@@H]1COCCN1c1nc2n(c(=O)c1F)CC[C@@H](C(F)(F)F)N2CCOCC(F)(F)F [Example 48, (S)-3-Fluoro-2-((R)-3-methylmorpholin-4-yl)-9-[2-(2,2,2-trifluoro-ethoxy)ethyl]-8-trifluoromethyl-6,7,8,9-tetrahydro-pyrimido[1,2-a]-pyrimidin-4-one] | < 10
C[C@@H]1COCCN1c1cc(=O)n2c(n1)N(Cc1nc(C3CC3)no1)[C@H](C(F)(F)F)CC2 [Example 227, (S)-9-(3-Cyclopropyl-[1,2,4]oxadiazol-5-yl-methyl)-2-((R)-3-methylmorpholin-4-yl)-8-trifluoromethyl-6,7,8,9-tetrahydro-pyrimido[1,2-a]-pyrimidin-4-one] | < 10
Cc1nnsc1CN1c2nc(N3CCOC[C@H]3C)cc(=O)n2CC[C@H]1C(F)(F)F [Example 125, (S)-2-((R)-3-Methyl-morpholin-4-yl)-9-(4-methyl-[1,2,3]thiadiazol-5-yl-methyl)-8-trifluoromethyl-6,7,8,9-tetrahydro-pyrimido[1,2-a]-pyrimidin-4-one] | 10 to 100
C[C@@H]1COCCN1c1nc2n(c(=O)c1F)CC[C@@H](C(F)(F)F)N2Cc1nccs1 [Example 232, (S)-3-Fluoro-2-((R)-3-methylmorpholin-4-yl)-9-thiazol-2-ylmethyl-8-trifluoromethyl-6,7,8,9-tetrahydro-pyrimido[1,2-a]-pyrimidin-4-one] | < 10
CC(C)CCC(=O)CN1c2nc(N3CCOC[C@H]3C)c(F)c(=O)n2CC[C@H]1C(F)(F)F [Example 279, (S)-3-Fluoro-2-((R)-3-methylmorpholin-4-yl)-9-(5-methyl-2-oxo-hexyl)-8-trifluoromethyl-6,7,8,9-tetrahydro-pyrimido[1,2-a]-pyrimidin-4-one] | < 10
CC1(C)COCCN1c1cc(=O)n2c(n1)N(CC(=O)c1ccccc1)[C@H](C(F)(F)F)CC2 [Example 150, (S)-2-(3,3-Dimethyl-morpholin-4-yl)-9-(2-oxo-2-phenylethyl)-8-trifluoromethyl-6,7,8,9-tetrahydro-pyrimido[1,2-a]-pyrimidin-4-one] | 10 to 100
C[C@@H]1COCCN1c1cc(=O)n2c(n1)N(CC(=O)N1CC3(CCO3)C1)[C@H](C(F)(F)F)CC2 [Example 330, (S)-2-((R)-3-Methyl-morpholin-4-yl)-9-[2-(1-oxa-6-aza-spiro[3.3]hept-6-yl)-2-oxoethyl]-8-trifluoromethyl-6,7,8,9-tetrahydropyrimido-[1,2-a]pyrimidin-4-one] | 10 to 100
C[C@@H]1COCCN1c1nc2n(c(=O)c1F)C[C@@](C)(C(F)(F)F)N2CC(=O)c1cccnc1 [Example 189, (S)-6-Fluoro-2-methyl-7-((R)-3-methyl-morpholin-4-yl)-1-(2-oxo-2-pyridin-3-yl-ethyl)-2-trifluoromethyl-2,3-dihydro-1H-imidazo[1,2-a]-pyrimidin-5-one] | < 10
O=c1cc(N2CC3CCC(C2)O3)nc2n1CC[C@@H](C(F)(F)F)N2Cc1ccnn1C(F)F [Example 166, (S)-9-(2-Difluoromethyl-2H-pyrazol-3-ylmethyl)-2-(8-oxa-3-aza-bicyclo[3.2.1]oct-3-yl)-8-trifluoromethyl-6,7,8,9-tetrahydro-pyrimido[1,2-a]-pyrimidin-4-one] | 10 to 100
CC1CN(c2cc(=O)n3c(n2)N(CC(=O)c2ccccn2)[C@H](C(F)(F)F)CC3)CCO1 (single isomer, unassigned) [Example 174] | 10 to 100
C[C@@H]1COCCN1c1cc(=O)n2c(n1)N(CC(=O)N1CCOCC1)[C@H](C(F)(F)F)CC2 [Example 234, (S)-2-((R)-3-Methyl-morpholin-4-yl)-9-(2-morpholin-4-yl-2-oxo-ethyl)-8-trifluoromethyl-6,7,8,9-tetrahydro-pyrimido[1,2-a]-pyrimidin-4-one] | 10 to 100
C[C@@H]1COCCN1c1cc(=O)n2c(n1)N(CC(=O)C1CCCCC1)[C@H](C(F)(F)F)CC2 [Example 258, (S)-9-(2-Cyclohexyl-2-oxoethyl)-2-((R)-3-methylmorpholin-4-yl)-8-trifluoromethyl-6,7,8,9-tetrahydro-pyrimido[1,2-a]-pyrimidin-4-one] | < 10
C[C@@H]1COCCN1c1nc2n(c(=O)c1F)CC[C@@H](C(F)(F)F)N2CC(=O)C(C)(C)C [Example 97, (S)-9-(3,3-Dimethyl-2-oxobutyl)-3-fluoro-2-((R)-3-methyl-morpholin-4-yl)-8-trifluoromethyl-6,7,8,9-tetrahydro-pyrimido[1,2-a]-pyrimidin-4-one] | < 10
Cc1noc(CN2c3nc(N4CCOC[C@H]4C)cc(=O)n3C[C@@]2(C)C(F)(F)F)n1 [Example 208, (S)-2-Methyl-7-((R)-3-methylmorpholin-4-yl)-1-(3-methyl-[1,2,4]oxadiazol-5-yl-methyl)-2-trifluoromethyl-2,3-dihydro-1H-imidazo[1,2-a]-pyrimidin-5-one] | 10 to 100
CCC(CC)C(=O)CN1c2nc(N3CCOC[C@H]3C)cc(=O)n2CC[C@H]1C(F)(F)F [Example 281, (S)-9-(3-Ethyl-2-oxo-pentyl)-2-((R)-3-methylmorpholin-4-yl)-8-trifluoromethyl-6,7,8,9-tetrahydro-pyrimido[1,2-a]-pyrimidin-4-one] | < 10
O=c1cc(N2CCOCC2CO)nc2n1CC[C@@H](C(F)(F)F)N2Cc1ccc(Cl)s1 (single isomer, unassigned) [Example 177] | 10 to 100
C[C@@H]1COCCN1c1cc(=O)n2c(n1)N(Cc1noc(C3CC3)n1)[C@H](C(F)(F)F)CC2 [Example 202, (S)-9-(5-Cyclopropyl-[1,2,4]oxadiazol-3-yl-methyl)-2-((R)-3-methylmorpholin-4-yl)-8-trifluoromethyl-6,7,8,9-tetrahydro-pyrimido[1,2-a]-pyrimidin-4-one] | < 10
C[C@@H]1COCCN1c1cc(=O)n2c(n1)N(Cc1noc(C(C)(C)C)n1)[C@H](C(F)(F)F)CC2 [Example 203, (S)-9-(5-tert-Butyl-[1,2,4]oxadiazol-3-yl-methyl)-2-((R)-3-methylmorpholin-4-yl)-8-trifluoromethyl-6,7,8,9-tetrahydro-pyrimido[1,2-a]-pyrimidin-4-one] | < 10
CC(C)C(=O)CN1CC[C@H](C(F)(F)F)n2c1nc(N1CCOC[C@H]1C)cc2=O [Example 130, (R)-2-((R)-3-Methyl-morpholin-4-yl)-9-(3-methyl-2-oxobutyl)-6-trifluoromethyl-6,7,8,9-tetrahydro-pyrimido[1,2-a]-pyrimidin-4-one] | < 10
CC(C)C(=O)CN1c2nc(N3CCOC[C@H]3C)c(F)c(=O)n2C[C@@]1(C)C(F)(F)F [Example 185, (S)-6-Fluoro-2-methyl-7-((R)-3-methyl-morpholin-4-yl)-1-(3-methyl-2-oxobutyl)-2-trifluoromethyl-2,3-dihydro-1H-imidazo[1,2-a]-pyrimidin-5-one] | < 10
C[C@@H]1COCCN1c1cc(=O)n2c(n1)N(CCOCC(F)(F)F)[C@H](C(F)(F)F)CC2 [Example 82, (S)-2-((R)-3-Methyl-morpholin-4-yl)-9-[2-(2,2,2-trifluoro-ethoxy)ethyl]-8-trifluoromethyl-6,7,8,9-tetrahydro-pyrimido[1,2-a]-pyrimidin-4-one] | < 10
CC1CN(c2cc(=O)n3c(n2)N(CC(=O)C(C)C)[C@H](C(F)(F)F)CC3)CCO1 (stereo partly drawn) [Example 320, (S)-2-(2-Methyl-morpholin-4-yl)-9-(3-methyl-2-oxobutyl)-8-trifluoromethyl-6,7,8,9-tetrahydropyrimido-[1,2-a]pyrimidin-4-one] | 10 to 100
CCC(=O)CN1CC[C@H](C(F)(F)F)n2c1nc(N1CCOC[C@H]1C)cc2=O [Example 26, (R)-2-((R)-3-Methyl-morpholin-4-yl)-9-(2-oxobutyl)-6-trifluoromethyl-6,7,8,9-tetrahydro-pyrimido[1,2-a]-pyrimidin-4-one] | < 10
